What all share (assay): ≥ marks a high value that may be exact or a test limit, other limits are often not marked, values filed in µg/mL are converted to µM
The test system of assay [1] is Acinetobacter baumannii ATCC 19606.
The subject of assay [2] is Escherichia coli ATCC 35218.
In assay [3] the test system is Staphylococcus aureus ATCC 25923.
The subject of assay [4] is Staphylococcus epidermidis P1389.
Assay [5] has as its system Pseudomonas aeruginosa ATCC 27853.
Assay [6] concerns Staphylococcus aureus P1374.
The test system of assay [7] is Enterococcus faecalis ATCC 29212.
Assay [8] relates to Bacillus subtilis AB91021.
Assay [9] concerns Escherichia coli AB94012.
The test system of assay [10] is Staphylococcus aureus ATCC 29213.
Assay [11] has as its system Pseudomonas aeruginosa AB93066.
Assay [12] has as its system Acinetobacter baumannii.
In assay [13] the test system is Staphylococcus aureus AB94004.
In assay [14] the test system is Escherichia coli ATCC 25922.
The test system of assay [15] is Klebsiella pneumoniae ATCC 700603.
For assay [16], the system named is Staphylococcus aureus P1386.
The test system of assay [17] is Micrococcus luteus AB93113.
Assay [18] deals with Staphylococcus aureus P1369.
Assay [19] has as its system Bacillus thuringiensis AB92037.
Assay [20] concerns Candida albicans AY93025.
The test system of assay [21] is Escherichia coli ATCC 25726.
In assay [22] the test system is Candida albicans ATCC 90028.
Assay [23] concerns Acinetobacter baumannii I NM8.
In assay [24] the test system is Staphylococcus aureus 06-051.
In assay [25] the test system is Candida glabrata ATCC 90030.
For assay [26], the system named is Candida parapsilosis ATCC 22019.
Assay [27] relates to Enterobacter cloacae 14-262.
Assay [28] deals with Acinetobacter baumannii 5821.
Assay [29] has as its system Escherichia coli 170.
Assay [30] relates to Cryptococcus neoformans var. grubii H99.
Assay [31] deals with Pseudomonas aeruginosa 5106.
For assay [32], the system named is Candida albicans SC5314.
In assay [33] the test system is Staphylococcus aureus 01-001.
For assay [34], the system named is Escherichia coli 5509.
For assay [35], the system named is Candida tropicalis ATCC 750.
Assay [36] concerns Pseudomonas aeruginosa 3599.
Assay [37] relates to Klebsiella pneumoniae 01-252.
Assay [38] has as its system Cryptococcus neoformans var. neoformans B3501.
The test system of assay [39] is Pseudomonas aeruginosa ATCC 9027.
The test system of assay [40] is Escherichia coli 09-280.
The subject of assay [41] is Enterobacter cloacae 06-267.
Assay [42] has as its system Escherichia coli 09-240.
In assay [43] the test system is Klebsiella pneumoniae 01-239.
Assay [44] deals with Bacillus subtilis ATCC 6633.
Assay [45] deals with Escherichia coli.
The test system of assay [46] is Escherichia coli ML-35p.
The test system of assay [47] is Staphylococcus aureus ATCC 43300.
Assay [48] concerns Pseudomonas aeruginosa PAO1.
For assay [49], the system named is Pseudomonas aeruginosa 08031014.
In assay [50] the test system is Candida albicans ATCC 20032.

Values after ≈ are worked out from the molar mass of the structure shown. Values joined by “and” are separate entries in the source; they are usually repeats but may differ in a detail not shown here. Equal values may be shown once.

In DBAASP one finds MIC data, which are given here for four compounds.

Usually MIC stands for the lowest concentration found to suppress growth. Read a high MIC as a need for much substance. `CC[C@H](C)[C@H](NC(=O)[C@H](C)NC(=O)CNC(=O)[C@@H]1CCCN1C(=O)[C@@H](NC(=O)[C@H](CC(C)C)NC(=O)CNC(=O)[C@H](Cc1c[nH]c2ccccc12)NC(=O)[C@H](CC(C)C)NC(=O)[C@@H](N)Cc1ccccc1)[C@@H](C)CC)C(=O)N[C@@H](CO)C(=O)N[C@@H](C)C(=O)N[C@H](C(=O)N[C@H](C(=O)N[C@@H](CO)C(=O)N[C@@H](CC(C)C)C(=O)N[C@H](C(=O)N[C@@H](CCCCN)C(=O)N[C@@H](CCCCN)C(N)=O)[C@@H](C)CC)[C@@H](C)O)C(C)C` [FLWGLIPGAISAVTSLIKK]: the MIC in assay [1] is 9.93 µM and 7.94 µM; in [2], 31.8 µM (≈ 64 µg/mL); in assay [3], 15.9 µM (≈ 32 µg/mL); in [4], 4.96 µM (≈ 10 µg/mL); in [5], more than 31.8 µM; in [6], 4.96 µM (≈ 10 µg/mL). Further, the MIC in assay [7] was 31.8 µM (≈ 64 µg/mL); in [8] it was 4.96 µM (≈ 10 µg/mL); in assay [9], not below 49.6 µM; in assay [10] it was 7.94 µM (≈ 16 µg/mL); in [11] it was not below 49.6 µM; in [12] it was 14.4 µM (≈ 29.1 µg/mL). Further, the MIC was 2.48 µM (≈ 5 µg/mL) in [13]; 31.8 µM (≈ 64 µg/mL) in assay [14]; more than 31.8 µM in assay [15]; 4.96 µM (≈ 10 µg/mL) in [16]; 2.48 µM (≈ 5 µg/mL) in assay [17]; 4.96 µM (≈ 10 µg/mL) in assay [18]. Besides, the values for the MIC in assay [19] and in [20] were 4.96 µM (≈ 10 µg/mL) and 9.93 µM (≈ 20 µg/mL), respectively.

In the case of `CC[C@H](C)[C@H](NC(=O)[C@H](CC(C)C)NC(=O)[C@H](Cc1cnc[nH]1)NC(=O)[C@@H]1CCCN1C(=O)[C@H](CC(C)C)NC(=O)[C@@H](NC(=O)[C@H](CCCCN)NC(=O)[C@H](C)NC(=O)[C@@H](NC(=O)CNC(=O)[C@H](CCCCN)NC(=O)[C@H](CC(C)C)NC(=O)CNC(=O)[C@H](CC(C)C)NC(=O)[C@H](CCCCN)NC(=O)[C@H](CC(C)C)NC(=O)[C@H](CC(C)C)NC(=O)[C@@H]1CCCN1C(=O)CNC(=O)[C@H](CC(C)C)NC(=O)[C@H](Cc1ccccc1)NC(=O)CN)C(C)C)C(C)C)C(=O)N1CCC[C@H]1C(=O)N[C@@H](CO)C(=O)N[C@@H](CCCN=C(N)N)C(=O)N[C@@H](CCC(N)=O)C(=O)N[C@@H](CCC(N)=O)C(=O)O` [GFLGPLLKLGLKGVAKVLPHLIPSRQQ], the MIC in [3] was found to be 6 µM (≈ 17.3 µg/mL); in [21], 25 µM (≈ 72 µg/mL); in [5], 6 µM (≈ 17.3 µg/mL); in [22], 25 µM (≈ 72 µg/mL); in assay [15] it was 25 µM (≈ 72 µg/mL); in assay [23], 12.5 µM (≈ 36 µg/mL).

Take `CC[C@H](C)[C@H](N)C(=O)N[C@@H](CC(C)C)C(=O)N[C@@H](CO)C(=O)N[C@@H](C)C(=O)N[C@H](C(=O)N[C@@H](Cc1c[nH]c2ccccc12)C(=O)N[C@@H](CO)C(=O)NCC(=O)N[C@H](C(=O)N[C@@H](CCCCN)C(=O)N[C@@H](CO)C(=O)N[C@@H](CC(C)C)C(=O)N[C@@H](Cc1ccccc1)C(N)=O)[C@@H](C)CC)[C@@H](C)CC` [ILSAIWSGIKSLF]: the MIC in assay [3] was 10 µM (≈ 14.3 µg/mL); in assay [24], 4 µM (≈ 5.74 µg/mL); in assay [5] it was more than 32 µM; in [25], not below 400 µM; in assay [26], not below 400 µM; in [27], not below 32 µM. The MIC in [10] is 8 µM (≈ 11.5 µg/mL); in [28], 10 µM (≈ 14.3 µg/mL); in [29], not below 32 µM; in [30], 25 µM (≈ 35.8 µg/mL); in [31], not below 32 µM; in assay [32], 25 µM (≈ 35.8 µg/mL). In addition, the MIC in [33] was 4 µM (≈ 5.74 µg/mL); in assay [34], not below 32 µM; in [35], 25 µM (≈ 35.8 µg/mL); in assay [36], not below 32 µM; in [37], not below 32 µM; in [14] it was 15 µM (≈ 21.5 µg/mL). Besides, the MIC in [38] is 12.5 µM (≈ 17.9 µg/mL); in [39] it was 6 µM (≈ 8.6 µg/mL); in assay [40] it was not below 32 µM; in [41] it was not below 32 µM; in assay [42] it was 30 µM (≈ 43 µg/mL); in assay [43] it was 30 µM (≈ 43 µg/mL).

In the case of `CC[C@H](C)[C@H](NC(=O)[C@H](CCCCN)NC(=O)[C@@H](NC(=O)[C@H](Cc1c[nH]c2ccccc12)NC(=O)[C@H](CS)NC(=O)[C@H](CCCNC(=N)N)NC(=O)[C@@H]1CCCN1C(=O)[C@@H](N)CCCNC(=N)N)[C@@H](C)CC)C(=O)N[C@@H](CCCCN)C(=O)N[C@@H](Cc1ccccc1)C(=O)N[C@@H](CCCNC(=N)N)C(=O)N[C@@H](CS)C(=O)N[C@@H](CCCCN)C(=O)N[C@@H](CO)C(=O)N[C@@H](CC(C)C)C(=O)N[C@@H](CCCCN)C(=O)N[C@@H](Cc1ccccc1)C(=O)O` [RPRCWIKIKFRCKSLKF], the MIC in [3] was 4.24 µM (≈ 9.38 µg/mL); in [5], 8.48 µM (≈ 18.8 µg/mL); in [44], not below 45.3 µM; in [45], 24 µM (≈ 53 µg/mL); in [46], 17 µM (≈ 37.5 µg/mL); in assay [47], 4.24 µM (≈ 9.38 µg/mL). Also, the MIC was 17 µM (≈ 37.5 µg/mL) in [14], 4.24 µM (≈ 9.38 µg/mL) in assay [48], 17 µM (≈ 37.5 µg/mL) in [49] and 8.48 µM (≈ 18.8 µg/mL) in [50].
